{"source": "paper PMC9436819", "about": "(JACC: Basic to Translational Science, 2022)", "assay_type_in_all_cases": "in vivo, human", "key": {"healthy adults [1]": {"system": "healthy adults", "test": "Treatment-emergent adverse events, multiple ascending dose (MAD) cohorts", "conditions": "n = 6", "description": "(§1) The MAD cohorts also used a randomized, double-blind, placebo-controlled, sequential design. […] Safety was assessed by the incidence of adverse events (AEs) and by the incidence of reduced LVEF. Treatment-emergent AEs (TEAEs) were defined as AEs that began or increased after study drug administration. All AEs were coded using the Medical Dictionary for Regulatory Activities, version 21.1, and graded using the National Cancer Institute Common Terminology Criteria for AEs (version 4.03) 5-point severity scale.[18] Each AE was judged as either related or unrelated to the study drug by the treating investigator. Clinical laboratory tests were obtained at regular intervals in all cohorts."}, "healthy adults [2]": {"system": "healthy adults", "test": "Treatment-emergent adverse events, single ascending dose (SAD) cohorts", "description": "as §1, with “SAD portion of the study” for “MAD cohorts also”, “sequential, escalating dose design, in which participants received single ascending oral doses of the study drug. Seven cohorts were dosed in sequence (Figure 1).” for “sequential design.”"}, "[3]": {"test": "Plasma pharmacokinetics in the CYP2D6 poor metabolizer cohort", "description": "CYP2D6 genotypes were determined at screening for all study participants; those identified as CYP2D6-PMs were excluded from the SAD and MAD cohorts but were invited to participate in the CYP2D6-PM cohort. The first individual in the CYP2D6-PM cohort was dosed after the SAD 25-mg cohort (Figure 1). […] Nine participants were randomized (7:2), with a sentinel dosing group consisting of the first 2 participants treated. For all study groups, blood samples for PK assessment were obtained predose, up to 12 times daily on day 1, and then at regular intervals throughout the study (see Supplemental Appendix for details). Standard noncompartmental methods were used to calculate PK parameters using Phoenix WinNonlin, version 7.0; actual sample collection times were used."}, "[4]": {"conditions": "CYP2D6 poor metabolizers, single 10 mg, arithmetic mean ± SD, n = 7"}, "[5]": {"conditions": "human, plasma, oral, CYP2D6 poor metabolizers, single 10 mg, geometric mean (geometric CV%), n = 7"}}, "note": "“Also recorded” adds a separate entry of the source. Marks after values point to notes of the source that are not given here.", "data": [{"smiles": "CCc1nc(-c2ccc3c(c2)CC[C@H]3NC(=O)c2cnn(C)c2)no1", "note": "[Aficamten]", "values": [{"measurement": "Participants with any TEAE", "setting": "healthy adults [1]; MAD 5 mg qd × 14 d", "result": "1 (17) n (%)"}, {"measurement": "TEAE: Chapped lips", "setting": "healthy adults [1]; MAD 5 mg qd × 14 d", "result": "1 (17) n (%)"}, {"measurement": "TEAE: Cough", "setting": "healthy adults [1]; MAD 5 mg qd × 14 d", "result": "1 (17) n (%)"}, {"measurement": "TEAE: Salivary hypersecretion", "setting": "healthy adults [1]; MAD 5 mg qd × 14 d", "result": "1 (17) n (%)"}, {"measurement": "Participants with any TEAE", "setting": "healthy adults [1]; MAD 10 mg qd × 14 d", "result": "2 (33) n (%)"}, {"measurement": "TEAE: Headache", "setting": "healthy adults [1]; MAD 10 mg qd × 14 d", "result": "1 (17) n (%)"}, {"measurement": "TEAE: Upper respiratory tract infection", "setting": "healthy adults [1]; MAD 10 mg qd × 14 d", "result": "1 (17) n (%)"}, {"measurement": "Participants with any TEAE", "setting": "healthy adults [2]; SAD 1 mg, n = 6", "result": "1 (17) n (%)"}, {"measurement": "Participants with any TEAE", "setting": "healthy adults [2]; SAD 10 mg, n = 6", "result": "1 (17) n (%)"}, {"measurement": "TEAE: Headache", "setting": "healthy adults [2]; SAD 10 mg, n = 6", "result": "1 (17) n (%)"}, {"measurement": "Participants with any TEAE", "setting": "healthy adults [2]; SAD 25 mg, n = 6", "result": "5 (83) n (%)"}, {"measurement": "TEAE: Abdominal tenderness", "setting": "healthy adults [2]; SAD 25 mg, n = 6", "result": "1 (17) n (%)"}, {"measurement": "TEAE: Dyspepsia", "setting": "healthy adults [2]; SAD 25 mg, n = 6", "result": "1 (17) n (%)"}, {"measurement": "TEAE: Flatulence", "setting": "healthy adults [2]; SAD 25 mg, n = 6", "result": "1 (17) n (%)"}, {"measurement": "TEAE: Headache", "setting": "healthy adults [2]; SAD 25 mg, n = 6", "result": "2 (33) n (%)"}, {"measurement": "TEAE: Nausea", "setting": "healthy adults [2]; SAD 25 mg, n = 6", "result": "2 (33) n (%)"}, {"measurement": "TEAE: Upper abdominal pain", "setting": "healthy adults [2]; SAD 25 mg, n = 6", "result": "2 (33) n (%)"}, {"measurement": "Participants with any TEAE", "setting": "healthy adults [2]; SAD 40 mg, n = 6", "result": "1 (17) n (%)"}, {"measurement": "TEAE: Ejection fraction decreased", "setting": "healthy adults [2]; SAD 40 mg, n = 6", "result": "1 (17) n (%)"}, {"measurement": "Participants with any TEAE", "setting": "healthy adults [2]; SAD 50 mg, n = 11", "result": "4 (36) n (%)"}, {"measurement": "TEAE: Abdominal tenderness", "setting": "healthy adults [2]; SAD 50 mg, n = 11", "result": "1 (9) n (%)"}, {"measurement": "TEAE: Dyspepsia", "setting": "healthy adults [2]; SAD 50 mg, n = 11", "result": "1 (9) n (%)"}, {"measurement": "TEAE: Ejection fraction decreased", "setting": "healthy adults [2]; SAD 50 mg, n = 11", "result": "1 (9) n (%)"}, {"measurement": "TEAE: Flatulence", "setting": "healthy adults [2]; SAD 50 mg, n = 11", "result": "1 (9) n (%)"}, {"measurement": "TEAE: Headache", "setting": "healthy adults [2]; SAD 50 mg, n = 11", "result": "1 (9) n (%)"}, {"measurement": "TEAE: Chest pain", "setting": "healthy adults [2]; SAD 50 mg, n = 11, bubbling sensation to the left chest, consistent with a gastrointestinal rather than cardiac association", "result": "1 (9) ^a n (%)"}, {"measurement": "Participants with any TEAE", "setting": "healthy adults [2]; SAD 75 mg, n = 1", "result": "1 (100) n (%)"}, {"measurement": "TEAE: Ejection fraction decreased", "setting": "healthy adults [2]; SAD 75 mg, n = 1", "result": "1 (100) n (%)"}, {"measurement": "TEAE: Chest pain", "setting": "healthy adults [2]; SAD 75 mg, n = 1, onset approximately 60 hours postdose", "result": "1 (100) ^b n (%)"}, {"measurement": "CL/F", "setting": "[3]; [4]", "result": "3.6 ± 1.4", "unit": "L/h"}, {"measurement": "t½", "setting": "[3]; [4]", "result": 110, "unit": "h"}, {"measurement": "half-life", "setting": "[3]; human, plasma, oral, 10 mg, CYP2D6 poor metabolizers, single 10 mg, arithmetic mean ± SD, n = 7, read-out: t½ (converted)", "result": "110 ± 47.3", "unit": "h"}, {"measurement": "Vd/F", "setting": "[3]; human, plasma, oral, CYP2D6 poor metabolizers, single 10 mg, arithmetic mean ± SD, n = 7, read-out: Vz/F", "result": "506 ± 84.4", "unit": "L"}, {"measurement": "AUC(0-inf)", "setting": "[3]; [5]", "result": 2970, "unit": "ng·h/mL"}, {"measurement": "Cmax", "setting": "[3]; [5]", "result": 57.3, "unit": "ng/mL"}, {"measurement": "AUC", "setting": "[3]; human, plasma, oral, CYP2D6 poor metabolizers, single 10 mg, geometric mean (geometric CV%), n = 7, read-out: AUC24", "result": 495, "unit": "ng·h/mL"}, {"measurement": "Tmax", "setting": "[3]; human, plasma, oral, CYP2D6 poor metabolizers, single 10 mg, median (range), n = 7", "result": 1, "unit": "h"}, {"measurement": "Effect of CYP2D6 poor metabolizer phenotype on the PK", "setting": "[3]; single 10 mg", "result": "not affected; also recorded: no effect"}, {"measurement": "Plasma mean concentrations in CYP2D6 poor metabolizers versus extensive metabolizers", "setting": "[3]; single 10-mg dose", "result": "Modestly lower"}]}]}
